According to PMC2365101, “Anti-Inflammatory Activity of (Polyphenolic)-Sulfonates and Their Sodium Salts in Rodents” (Metal-Based Drugs, 1998):

Biological target: T1, IL-1 high affinity receptor on L929 fibroblasts (Mus musculus, UniProt P13504)
T1 construct: host or cells: L929 mouse fibroblasts
T1 sequence (P13504 20-576): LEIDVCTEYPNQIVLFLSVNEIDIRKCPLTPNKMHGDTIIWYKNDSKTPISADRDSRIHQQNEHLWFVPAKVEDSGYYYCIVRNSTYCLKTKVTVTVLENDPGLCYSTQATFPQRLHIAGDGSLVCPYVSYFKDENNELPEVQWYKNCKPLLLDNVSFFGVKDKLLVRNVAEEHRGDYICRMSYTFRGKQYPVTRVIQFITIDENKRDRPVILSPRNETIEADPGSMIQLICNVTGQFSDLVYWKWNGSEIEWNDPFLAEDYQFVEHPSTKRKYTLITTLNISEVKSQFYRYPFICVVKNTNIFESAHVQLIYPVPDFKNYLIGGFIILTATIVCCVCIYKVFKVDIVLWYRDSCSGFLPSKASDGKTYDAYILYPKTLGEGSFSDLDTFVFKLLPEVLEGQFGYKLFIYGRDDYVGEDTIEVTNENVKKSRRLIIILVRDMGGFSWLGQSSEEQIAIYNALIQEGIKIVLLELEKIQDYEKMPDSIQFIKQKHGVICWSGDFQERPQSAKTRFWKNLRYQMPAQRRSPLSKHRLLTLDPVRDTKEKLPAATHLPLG
Test: 125I-IL-1 high affinity binding to L929 fibroblasts
Conditions: for 125I-IL-1 binding, Percent of Control: at 8 Hours (table title), N=6; for reduction of IL-1 high affinity receptor binding: 5 to 50 μM, 5 hr
Source text: Few reports in the literature indicate interaction at these receptor sites other than by peptides or antibodies. […] Blocking these receptors is desirable because the entire inflammation cascade of events is triggered by the early release of TNFa and IL-1. […] Radioisotopes were obtained from New England Nuclear [Dupont, Boston, MA] and substrates and co- factors were obtained from Sigma Chemical Co. [St. Louis, MO]. […] Cell lines were obtained from American Type Culture Collection [Rockville, MD]. In Vivo Tests Anti-inflammatory screen in mice: Male CF male mice weighing 28-32g obtained from Jackson Lab. [Bar Harbor, […]] were used to screen agents at 8 or 16 mg/kg intraperitoneal [I.P.] x 2 administered 3 hr and 30 min prior to administering the irritant, according to Winter's protocol. Evaluation of the induced edema was made by injecting 2% carrageenan in 0.9% saline into the plantar region of the foot. The opposite foot injected with 0.9% isotonic saline was used as a base line. […] Salmonella abortus equi [Lot # 69F4003] […] Drugs from 2 to 16 mg/kg, I.P. were administered 2 hr prior and 2 hr post-injection of the LPS and then subsequently for every 24 hr for the length ofthe animals' lives. Deaths were recorded every 12 hr and continued for 96 hr. […] In vitro TNFa andIL-1 Measurements and Cellular Regulation IC-21 mouse macrophages were maintained in RPMI-1640 + 10% FCS + P/S. After the cells had grown to confluency, E. coli LPS at 10 Ixg/ml was added to the medium. Agents were incubated at 12.5 to 100 µM final concentration for 18 hr. The medium (100 btl) was collected for TNFCt determinations. Interleukin-1 [IL-1] release was determined using P388D1 cells which were maintained in RPMI-1640 + 10% FCS + P/S. The L929 bioassay was used to quantitate the TNF and the IL-1 levels. The L929 mouse fibroblasts were grown in DMEM + 10% FCS + P/S to confluency in 96 well plates and incubated with 100 tl ofmedium from IC-20 or P388D cells after 18 hr. The cells were stained with 0.2% crystal violet in 20% MeOH and read at 580 nm using a Molecular Devices scanner (SOFT-max program). […] The cells were washed repeatedly with isotonic saline, pH.7.2 and aliquots counted. Prostaglandin cylcooxygenase activity Mouse J774AI macrophages maintained in Dulbecco's modified Eagle's medium + 15% FCS + P/S. Cells (5 x 106) were incubated with agents (5 to 100 ].tM final concentration) and 3H-arachidonic acid (100 Ci/mol) for 60 min at 37C in a CO2 incubator. The reaction was terminated with 2N HCI, the mixture extracted 2 X with ether, and the organic layer evaporated.

Structure (SMILES)	125I-IL-1 binding, Percent of Control (5 μM)	125I-IL-1 binding, Percent of Control (12.5 μM)	125I-IL-1 binding, Percent of Control (25 μM)	125I-IL-1 binding, Percent of Control (50 μM)	reduction of IL-1 high affinity receptor binding
COc1c2cc(S(=O)(=O)[O-])cc1Cc1cc(S(=O)(=O)[O-])cc(c1OC)Cc1cc(S(=O)(=O)[O-])cc(c1OC)Cc1cc(S(=O)(=O)[O-])cc(c1OC)Cc1cc(S(=O)(=O)[O-])cc(c1OC)Cc1cc(S(=O)(=O)[O-])cc(c1OC)C2.[Na+].[Na+].[Na+].[Na+].[Na+].[Na+] [Compound 6]	3+2% of Control	3 + 2% of Control	3 + 2% of Control	3 + 1% of Control	greater than 90%
CC(=O)Oc1c2cc(S(=O)(=O)[O-])cc1Cc1cc(S(=O)(=O)[O-])cc(c1OC(C)=O)Cc1cc(S(=O)(=O)[O-])cc(c1OC(C)=O)Cc1cc(S(=O)(=O)[O-])cc(c1OC(C)=O)Cc1cc(S(=O)(=O)[O-])cc(c1OC(C)=O)Cc1cc(S(=O)(=O)[O-])cc(c1OC(C)=O)Cc1cc(S(=O)(=O)[O-])cc(c1OC(C)=O)Cc1cc(S(=O)(=O)[O-])cc(c1OC(C)=O)C2.[Na+].[Na+].[Na+].[Na+].[Na+].[Na+].[Na+].[Na+] [Compound 8]	9+ 1% of Control	10 + 5% of Control	9 + 5% of Control	7 + 4% of Control	greater than 90%
